From ChEMBL document CHEMBL5143588, “Discovery, Synthesis, and Biological Evaluation of Anaenamides C and D from a New Marine Cyanobacterium, Hormoscilla sp” (J Nat Prod, 2022)
Calls of active or inactive are those of the source. No cut-off for these calls is given here.

Columns and labels:
[1] = target: T1, Nuclear factor erythroid 2-related factor 2 (Homo sapiens) (UniProt Q16236); test: Activation of Nrf2 in human HEK293-ARE-Luc cells assessed as fold activation of luciferase activity at 32 uM incubated for 24 hrs by ARE-luciferase reporter gene assay; type: cell-based; settings: filed as activator
T1 sequence (whole entry): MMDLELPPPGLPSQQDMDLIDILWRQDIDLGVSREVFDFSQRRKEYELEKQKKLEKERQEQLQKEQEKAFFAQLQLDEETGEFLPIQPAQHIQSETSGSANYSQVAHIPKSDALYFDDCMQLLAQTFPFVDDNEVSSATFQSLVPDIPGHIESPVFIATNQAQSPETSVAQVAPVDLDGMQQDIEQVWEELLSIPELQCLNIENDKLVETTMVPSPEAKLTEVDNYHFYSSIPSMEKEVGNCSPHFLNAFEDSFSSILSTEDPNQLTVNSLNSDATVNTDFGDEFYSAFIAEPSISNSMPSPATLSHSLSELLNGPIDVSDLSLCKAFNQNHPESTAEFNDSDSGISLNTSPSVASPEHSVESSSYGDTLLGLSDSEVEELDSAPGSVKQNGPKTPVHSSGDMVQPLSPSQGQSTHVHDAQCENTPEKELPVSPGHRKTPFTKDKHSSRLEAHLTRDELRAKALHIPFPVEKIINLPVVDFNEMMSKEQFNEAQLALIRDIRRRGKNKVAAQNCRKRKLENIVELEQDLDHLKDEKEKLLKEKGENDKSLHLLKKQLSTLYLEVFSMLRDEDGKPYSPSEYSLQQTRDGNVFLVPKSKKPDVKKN

[2] = test system: HCT-116; test: Cytotoxicity against human HCT116 cells assessed as inhibition of cell viability incubated for 48 hrs by MTT assay; type: functional, cell-based; settings: HCT-116, 48 h
[3] = test system: HEK293; test: Cytotoxicity against human HEK293-ARE-Luc cells assessed as change in cell viability incubated for 24 hrs by MTT assay; type: toxicity, cell-based; settings: hek293, 24 h
[4] = test system: HEK293; test: Cytotoxicity against human HEK293-ARE-Luc cells assessed as reduction in cell viability at 10 to 100 uM incubated for 24 hrs by MTT assay; type: toxicity, cell-based; settings: hek293, 24 h, dose 10-100 µM
[5] = target: T1, Nuclear factor erythroid 2-related factor 2 (Homo sapiens); test: Activation of Nrf2 in human HEK293-ARE-Luc cells at 10 to 100 uM incubated for 24 hrs by ARE-luciferase reporter gene assay; type: cell-based; settings: filed as activator, dose 10-100 µM
[6] = target: T1, Nuclear factor erythroid 2-related factor 2 (Homo sapiens); test: Activation of Nrf2 in human HEK293-ARE-Luc cells assessed as fold activation of luciferase activity at 100 uM incubated for 24 hrs by ARE-luciferase reporter gene assay; type: cell-based; settings: filed as activator

Molecule `CCCCCc1cccc(OC)c1C(=O)O[C@@H](C(=O)O[C@@H](C)C(=O)NC/C=C(/Cl)C(N)=O)[C@@H](C)CC` has a fold change (FC) [1] of 17 and an IC50 [2] of 32 µM.
In the case of `CC(C)(C)c1cc(O)ccc1O` [E319], the fold change (FC) [1] is reported as 29 and the Activity [3] is reported as “Non-Toxic”.
In the case of `CCCCCc1cccc(OC)c1C(=O)O[C@@H](C(=O)O[C@@H](C)C(=O)NC/C=C(\Cl)C(=O)OC)[C@@H](C)CC`, the Activity [4] is reported as “Toxic”, the Activity [5] is reported as “Active” and the IC50 [2] is reported as 9 µM.
For `CCCCCc1cccc(OC)c1C(=O)O[C@@H](C(=O)O[C@@H](C)C(=O)NC/C=C(/Cl)C(=O)NC(c1ccccc1)(c1ccccc1)c1ccccc1)[C@@H](C)CC`, the fold change (FC) [6] was 6.
`CCCCCc1cccc(OC)c1C(=O)O[C@@H](C(=O)O[C@@H](C)C(=O)NC/C=C(/Cl)C(=O)OC)[C@@H](C)CC` was tested, and the Activity [4] was “Toxic”, the Activity [5] was “Active” and the IC50 [2] was 5 µM.
For `CCCCCc1cccc(OC)c1C(=O)O[C@@H](C(=O)O[C@@H](C)C(=O)NC/C=C(\Cl)C(=O)NC(c1ccccc1)(c1ccccc1)c1ccccc1)[C@@H](C)CC`, the fold change (FC) [6] was 11.
For `CCCCCc1cccc(OC)c1C(=O)O[C@@H](C(=O)O[C@@H](C)C(=O)NC/C=C(\Cl)C(N)=O)[C@@H](C)CC`, the fold change (FC) [1] was 15 and the IC50 [2] was 42 µM.
